The values that follow are results of earlier work, collected in patent publication US8889745B2 (Nanunanu Ltd., priority 2006, dated 2014).

The term aqueous solubility denotes how much of the substance goes into solution per volume.

Values after ≈ are worked out from the molar mass of the structure shown.

`C[C@@H]1C[C@H]2[C@@H]3CCC4=CC(=O)C=C[C@]4(C)[C@@]3(F)[C@@H](O)C[C@]2(C)[C@@]1(O)C(=O)CO` [dexamethasone]: the aqueous solubility is 88 µg/mL (≈ 224 µM).
